Data published in patent US12180174B2, “A2-73 crystalline polymorph compositions of matter and methods of use thereof” (ANAVEX LIFE SCIENCES CORP., priority 2018, dated 2024).
Counter-ions that a name gives are not always drawn. Like-named read-outs stand apart in the source and are kept apart here. Blank lines part the entries; values can stand above or below the compound they belong to.

Legend:
[1] = Solid form stability (storage, drying); type: physicochemical
Solubility at defined pH = type: physicochemical
[2] = pH of a saturated solution; type: physicochemical; conditions: saturated solution in water
[3] = Hygroscopicity / gravimetric vapor sorption (GVS); type: physicochemical; conditions: for water uptake (GVS): 90% RH
Protocol: This is confirmed by gravimetric vapor sorption (GVS) analysis, showing minimal water update (0.3% w/w) up to 90% RH. […] (peak temperature at ca. 91° C.). Upon further heating, Form I appears to sublime, beginning above ca. 120° C. with a weight loss of ca. 99% observed by 212.6° C. ^1H NMR spectra and HPLC-MS results were consistent with the structure of A2-73 freebase. […] FIG. 15 is a […]polarized-light microscopy (PLM) of Freebase Form I. XRPD pattern of Anavex2-73 freebase Form I obtained using copper Ka radiation is shown in FIG. 16.

[4] = test system: unspecified progressive dementia; assay: Cognitive function of patients with unspecified progressive dementia, enteric coated tablet; type: in vivo, human; conditions: 180 days
Protocol: A person with unspecified progressive dementia is administered 30 mg of […]2-73 fumarate in an enteric coated tablet every other day for 180 days. Blood levels reveal about 25 mg per day are being administered. […] A person with unspecified progressive dementia is administered 50 mg of […]2-73 freebase in an enteric coated tablet every other day for 180 days. Blood levels reveal about 20 mg per day are being administered.

[5] = Solvent solubility screen; type: physicochemical; conditions: for solubility: read-out: Approx. Solubility
[6] = Blood levels in patients on extended release dosage forms; type: in vivo, human; conditions: person
Protocol: A person presents with early signs of Alzheimer's disease. They are administered a pharmaceutical composition via transdermal patch containing 100 mg ANAVEX2-73 freebase with a 4 cm2 patch replaced approximately every three days administration for 120 days. Blood levels of about 10 ng/ml are being maintained.
A person presents with signs of early onset Alzheimer's disease. They are administered via a 9 cm2 transdermal patch containing a pharmaceutical composition containing 200 mg ANAVEX2-73 freebase with the patch replaced weekly for 180 days. Blood levels of about 12 ng/ml are being maintained.
A person with unspecified progressive dementia is administered 30 mg of ANAVEX2-73 fumarate in an enteric coated tablet every other day for 180 days. Blood levels reveal about 25 mg per day are being administered.
A person with unspecified progressive dementia is administered 50 mg of ANAVEX2-73 freebase in an enteric coated tablet every other day for 180 days. Blood levels reveal about 20 mg per day are being administered.

Alzheimer's disease = assay: Cognitive function of patients with Alzheimer's disease, transdermal patch; type: in vivo, human
Protocol: A person presents with early signs of Alzheimer's disease. They are administered a pharmaceutical composition via transdermal patch containing 100 mg […]2-73 freebase with a 4 cm2 patch replaced approximately every three days administration for 120 days. Blood levels of about 10 ng/ml are being maintained. […] A person presents with signs of early onset Alzheimer's disease. They are administered via a 9 cm2 transdermal patch containing a pharmaceutical composition containing 200 mg […]2-73 freebase with the patch replaced weekly for 180 days. Blood levels of about 12 ng/ml are being maintained.

ULK1 = ULK1 serine 555 phosphorylation, Western blot; type: cell-based, human; conditions: 1 μM; HeLa cells
From the text: Activation of the serine/threonine protein kinase ULK1 (unc-51-like kinase 1) via phosphorylation at serine 555 indicates stimulation of the canonical autophagy pathway. […] It has to be mentioned that this activating ULK1 phosphorylation can be inhibited by mTOR as well as stimulated via AMPK kinase. Both are basal physiological sensors of nutritional conditions and key signal transducers of canonical autophagy stimulation. ULK1 is in fact the signal mediating the induction of the formation of the phagophore during the autophagy process and, therefore, a central promoter of autophagy. ULK1 itself functions in a complex with at least three protein partners: FI P200 (focal adhesion kinase family interacting protein of 200 kDa), ATG (autophagy-related protein) 13 (ATG13), and ATG101.
Cell culture and microscopy. HeLa and HEK293A cells were cultured in DMEM (Invitrogen, Carlsbad, CA, USA, 41965062) supplemented with active FBS (Life Technologies GmbH, Carlsbad, CA, USA, 10270106), 1×ABAM (Invitrogen, 15240-062) and 1 mM sodium pyruvate (Invitrogen, 1136-088). […] Proteins were detected by chemiluminescence using the Amersham Imager 600 (GE). Confocal fluorescence microscopical analyses of HEK293A cells stably expressing GFP-LC3B were performed with the laser scanning microscope LSM 710 (Zeiss, Oberkochen).

HeLa cells = assay: LC3-II autophagic flux, Western blot with Bafilomycin A1; type: cell-based, human; conditions: 1 μM, BafiA1 2 μM, vs control
Protocol: To study the effect of ANAVEX2-73 on autophagy, human HeLa cells were treated with the compound and autophagic activity was analyzed by investigating the flux of LC3-II. LC3-II is the lipidated form of LC3, which (partially) stays attached to autophagosomes and thus, gets degraded by lysosomes. Therefore, the quantification of the LC3-II flux, using Bafilomycin AI (BafiAi; 2 μM) for inhibition of lysosomal degradation, directly corresponds to cellular autophagic activity. […] There is a concentration-dependent and significant increase in the autophagic-flux following application of ANAVEX2-73: an increase of over 2-fold at 10 μM and over 1.5-fold at 1 μM ANAVEX2-73 (FIG. 35A). As standard positive control to provoke the induction of autophagy, HeLa cells were incubated with EBSS, which resembles nutrient deprivation as autophagy stimulus.
Cell culture and microscopy. HeLa and HEK293A cells were cultured in DMEM (Invitrogen, Carlsbad, CA, USA, 41965062) supplemented with active FBS (Life Technologies GmbH, Carlsbad, CA, USA, 10270106), 1×ABAM (Invitrogen, 15240-062) and 1 mM sodium pyruvate (Invitrogen, 1136-088). After medium change, the cells were treated for 2 h with 10, 1, and 0.1 μM ANAVEX2-73 and PRE-084 (Tocris, Bristol, UK, 0589), respectively; ANAVEX2-73 was provided by ANAVEX Life Sciences Corp, New York, NY, USA. Afterwards Bafilomycin A1 (Bafi.Ai; 2 μM) (Toronto Research Chemicals, North York, ON, Canada, B110000) or DMSO was added for a further 2 h and the cells were eventually harvested. Western blot analyses were performed as described previously. Briefly, cells were subjected to SDS-PAGE using precast NuPAGE 4%-12% Bis-Tris gels (Invitrogen, NP0322). Proteins were detected by chemiluminescence using the Amersham Imager 600 (GE). Confocal fluorescence microscopical analyses of HEK293A cells stably expressing GFP-LC3B were performed with the laser scanning microscope LSM 710 (Zeiss, Oberkochen).

form stability on drying ([1]; dried after isolation wet with water): once dried, it converts to Form I
SMILES: CN(C)CC1CCOC1(c1ccccc1)c1ccccc1.Cl (racemic) [Form VIII, tetrahydro-N,N-dimethyl-2,2-diphenyl-3-furanmethanamine hydrochloride]

solubility (Solubility at defined pH; pH 1.2, simulated gastric fluid, pH 1.2, read-out: solubility): ~47.2 mg/mL
solubility (Solubility at defined pH; pH 4.5): ~33.1 mg/mL
pH of a saturated solution [2]: 2.66
hygroscopicity [3]: hygroscopic
SMILES: CN(C)CC1CCOC1(c1ccccc1)c1ccccc1 (centres unmarked) [A2-73 dihydrogen phosphate Form I, tetrahydro-N,N-dimethyl-2,2-diphenyl-3-furanmethanamine]

water solubility (Solubility at defined pH; water): not highly water soluble
solubility ([5]; 1,4-dioxane, organic solvent or mixture): ≥ 200 mg/mL
solubility ([5]; 1-butanol, organic solvent or mixture): ≥ 200 mg/mL
solubility ([5]; 2-butanone, organic solvent or mixture): ≥ 200 mg/mL
solubility ([5]; N,N′-dimethylformamide, organic solvent or mixture): ≥ 200 mg/mL
solubility ([5]; acetone, organic solvent or mixture): ≥ 200 mg/mL
solubility ([5]; cyclohexane, organic solvent or mixture): ≥ 200 mg/mL
solubility ([5]; dimethyl sulfoxide, organic solvent or mixture): ≥ 200 mg/mL
solubility ([5]; heptane, organic solvent or mixture): ≥ 200 mg/mL
solubility ([5]; methyl acetate, organic solvent or mixture): ≥ 200 mg/mL
solubility ([5]; methyl isobutyl ketone, organic solvent or mixture): ≥ 200 mg/mL
solubility ([5]; nitromethane, organic solvent or mixture): ≥ 200 mg/mL
solubility ([5]; tetrahydrofuran, organic solvent or mixture): ≥ 200 mg/mL
solubility ([5]; water): < 5 mg/mL
hygroscopicity [3]: non-hygroscopic
water uptake (GVS) [3]: 0.3 % w/w
XRPD analysis post-GVS ([3]; post-GVS): no change in form
amount administered per day as revealed by blood levels ([6]; 50 mg enteric coated tablet every other day, 180 days): about 20 mg per day
blood levels maintained ([6]; transdermal patch 100 mg, 4 cm2, replaced approximately every three days, 120 days): about 10 ng/ml
blood levels maintained ([6]; transdermal patch 200 mg, 9 cm2, replaced weekly, 180 days): about 12 ng/ml
SMILES: CN(C)CC1CCOC1(c1ccccc1)c1ccccc1 (centres unmarked) [A2-73 freebase Form I, tetrahydro-N,N-dimethyl-2,2-diphenyl-3-furanmethanamine]
cognitive function ([4]; 50 mg enteric coated tablet every other day): stabilizes during that period with no additional loss detected
solubility in the solvents tested (summary) ([5]; all solvents of Table 10): high solubility in all solvents tested, except water
cognitive function (Alzheimer's disease; early onset Alzheimer's disease, patch 200 mg, 9 cm2, weekly, 180 days): stabilizes during that period with no additional loss detected
cognitive function (Alzheimer's disease; early signs of Alzheimer's disease, patch 100 mg, 4 cm2, every three days, 120 days): stabilizes during that period, with no additional loss detected

solubility at GI pH (Solubility at defined pH; GI pH): lower solubility
solubility at gastric pH (Solubility at defined pH; gastric pH (generally about 1.5 to 3.5)): moderate solubility
solubility (Solubility at defined pH; pH 1.2): ca. 43.0 mg/mL
solubility (Solubility at defined pH; pH 4.5): ~4.1 mg/mL
solubility (Solubility at defined pH; pH 6.8, aqueous buffer, pH 6.8, read-out: solubility): ~12.6 mg/mL
pH of a saturated solution [2]: 3.61
hygroscopicity [3]: slightly hygroscopic
water uptake (GVS) [3]: ca. 0.9 % w/w
SMILES: CN(C)CC1CCOC1(c1ccccc1)c1ccccc1 (centres unmarked) [A2-73 hydrogen fumarate Form III, tetrahydro-N,N-dimethyl-2,2-diphenyl-3-furanmethanamine]

SMILES: CN(C)CC1CCOC1(c1ccccc1)c1ccccc1 (centres unmarked) [A2-73 sulfate Form II, tetrahydro-N,N-dimethyl-2,2-diphenyl-3-furanmethanamine]
form stability on storage ([1]; post-storage at 40° C./75% RH): metastable, converting to A2-73 sulfate Form I

amount administered per day as revealed by blood levels ([6]; 30 mg enteric coated tablet every other day, 180 days): about 25 mg per day
SMILES: CN(C)CC1CCOC1(c1ccccc1)c1ccccc1 (centres unmarked) [ANAVEX2-73 fumarate, tetrahydro-N,N-dimethyl-2,2-diphenyl-3-furanmethanamine]
cognitive function ([4]; 30 mg enteric coated tablet every other day): stabilizes during that period with no additional loss detected

hygroscopicity ([3]; hydrochloride): slightly hygroscopic
SMILES: CN(C)CC1CCOC1(c1ccccc1)c1ccccc1.Cl (centres unmarked) [Form II, tetrahydro-N,N-dimethyl-2,2-diphenyl-3-furanmethanamine hydrochloride]

hygroscopicity ([3]; hydrochloride): slightly-hygroscopic
SMILES: CN(C)CC1CCOC1(c1ccccc1)c1ccccc1.Cl (centres unmarked) [Form III, tetrahydro-N,N-dimethyl-2,2-diphenyl-3-furanmethanamine hydrochloride]

SMILES: O=C(OCCN1CCOCC1)C1(c2ccccc2)CCCCC1 [PRE-084, 2-morpholin-4-ylethyl 1-phenylcyclohexane-1-carboxylate, reference compound]
ULK1 serine 555 phosphorylation (ULK1): up to 1.5 fold
increase in autophagic flux (LC3-II) (HeLa cells): over 1.5 fold
